Assay results: paper PMC7667029, “A Targeted Computational Screen of the SWEETLEAD Database Reveals FDA-Approved Compounds with Anti-Dengue Viral Activity” (mBio, 2020)
pIC50: −log10 of the molar value.

How the values were obtained:
[1] = test system: dengue virus; test: Initial screening of hit compounds for anti-dengue activity in tissue culture cells (Table S1); assay type: cell-based; conditions: viral titer relative to vehicle, tissue culture cell lines (BHK-21 48 hpi, Fig. S1; Huh7, Fig. 2C, 3C, 4C)
[2] = test system: BHK-21 and Huh7 cells; test: Cell viability by WST assay in uninfected cells (Table S1); assay type: cell-based; conditions: cell viability relative to vehicle at these doses
Description: Supplementary file : TABLE S1 Summary of hits for lead compounds ARDP0006 and ST-148 screened for anti-dengue activity in tissue culture cells. Hit compounds were tested for anti-dengue activity and cell toxicity in tissue culture cell lines. Antiviral activity is summarized as follows: −, not antiviral, with titer greater than 50% of vehicle; +, weakly antiviral, with titer between 20 and 50% of vehicle; ++, moderately antiviral, with titer between 5 and 20% of vehicle; +++, highly antiviral, with titer less than 5% of vehicle. Toxicity at these doses is represented as follows: −, nontoxic, with cell viability greater than 80% of vehicle; +, mild toxicity, with cell viability between 60 and 80% of vehicle; +++, high toxicity, with cell viability less than 60% of vehicle. Data summarized here are depicted graphically in Fig. S1 and Fig. 2C, 3C, and [4]C. […]
Supplementary file : FIG S1 Initial screening of eliminated hit compounds for anti-dengue activity in tissue culture cells. […] Cell viability in uninfected cells in the presence of compounds for 48 h was measured by WST assay (gray). […]
Mock-infected wells were used to determine cell viability in the presence of chemical compounds compared to 1% DMSO vehicle control. Cell viability was determined using the WST-1 kit (Abcam) per the manufacturer’s instructions. […]

[3] = test system: DENV2; test: Antiviral activity in DENV2-infected Huh7 cells, infectious virus in supernatant by plaque assay; assay type: cell-based, dengue virus; conditions: Dengue virus, Huh-7, DENV2-infected Huh7 cells

COc1cc2c(Nc3ccc(Br)cc3F)ncnc2cc1OCC1CCN(C)CC1 [Vandetanib, vandetanib]
Antiviral [1]: ++ (moderately antiviral, with titer between 5 and 20% of vehicle)
Toxicity [2]: − (nontoxic, with cell viability greater than 80% of vehicle)
IC90 ([3]; from dose-response curve fit, 24 hpi): 3.6 µM
pIC50 ([3]; single infectious cycle, plaque assay at 24 hpi, read-out: IC50 of viral inhibition (infectious extracellular virus)): 5.80
